Reference: US20080171704A1, “Composition and method for treating diabetes” (priority 2001, published 2008)
Where a SMILES comes first, the peptide text is derived from it.

Legend:
[1] = tested on: normal hamsters; experiment: Islet formation in normal hamsters; type: in vivo, Syrian golden Hamsters; conditions: 5 mg/kg IP daily
Procedure: FIG. 2. Increase in pancreatic endocrine cell mass with INGAP Peptide. Normal Syrian golden Hamsters were treated with saline (control) or INGAP Peptide IP for either 10 days or 30 days. The number of islets/ml was determined with a computer-aided Morphometric system employing Image-Pro Plus software.
INGAP Peptide was studied for its effects on islet formation in normal hamsters. INGAP Peptide 5 mg/kg (25 mg/m^2) was given IP daily for 4 weeks and β-cell mass was assessed at 10 days and at 30 days. […] The islet neogenesis effect was manifested by production of more insulin and an increase in the number of islets in the pancreata. Newly formed β-cells appeared in the wall of, and budding from, pancreatic ducts. These insulin-positive cells resulted from ductal epithelial cell differentiation and islet cell growth, and their appearance was proportional to the dose and duration of treatment with INGAP Peptide. Over longer periods of treatment, these cells migrated away from the duct and formed islets in the parenchyma of the pancreas. After 10 consecutive days of INGAP Peptide administration, there was a 30% increase in islet number, and by 30 days there was a doubling of the number of islets in the tissues, consistent with the prior observations using ilotropin, INGAP, and cellophane wrapping in animal models.

[2] = 31-day mouse repeat-dose toxicology study; type: in vivo, mice; conditions: mouse, in vivo; CD-1 mice, 31-day dosing; read-out: no adverse effect level (NOAEL)
Procedure: (§1) FIG. 7. Immunopositive tissue area in normal mouse following treatment with INGAP Peptide for 31 days. Data are mean ±SEM. The percentage of cross-sectional area stained for insulin was determined with an Olympus microscope (150×) and image analysis software (Image Pro Plus Version 4.0, Media Cybernetics).
(§2) A repeat-dose toxicology study was conducted in mice with 31 days of daily injection of INGAP Peptide at 0, 2, 20, and 100 mg/kg/day. In this study, four treatment groups of 10 males and 10 females each were allocated, as were two groups of recovery animals (5 males and 5 females). Blood was collected at termination and necropsies were performed for gross and microscopic observations. Clinical pathology and serum levels were evaluated in approximately half the animals in each group. Selected organs (brain, adrenal, heart, kidney, liver, lung, pancreas, and spleen) were weighed and relative organ weights were calculated. A section of the pancreas was removed and frozen in liquid nitrogen for evaluation for insulin content and sections of pancreas tissue were submitted for independent microscopic examination. Recovery animals were terminated 28 days after cessation of dosing. Various parameters for further study as well as potentially drug-related abnormal findings were evaluated to determine the reproducibility and potential clinical significance.

[3] = tested on: CD-1 mice; experiment: 31-day mouse repeat-dose toxicology study; type: in vivo
Procedure: as §1, §2

[4] = tested on: C57BL/6J mice made diabetic with STZ; experiment: In vivo efficacy study in streptozotocin-diabetic mice
Procedure: FIG. 3. Time course of blood glucose following injection of INGAP Peptide […] twice daily or saline for 39 days to C57BL/6J mice rendered diabetic using a regimen of multiple injections of low-dose streptozotocin. Blood glucose levels were measured every three days.
C57BL/6J mice were made diabetic with STZ (35 mg/kg/day×5 days) and divided in INGAP Peptide-treated (250 ? g twice daily) and saline control groups of 4 animals each. […] The appearance of glucagon producing cells is noteworthy since glucagon plays a major role in the defense against hypoglycemia. This feature of the INGAP Peptide induced islet neogenesis could help to reverse the impaired counter regulatory control of hypoglycemia associated with the overzealous treatment of diabetes. Hypoglycemia was not observed in any of the INGAP Peptide-treated animals. In saline-treated control animals, no new islet formation was observed.

[5] = tested on: beagle dogs; experiment: 34-day dog repeat-dose toxicology study; type: in vivo
Procedure: FIG. 8. Effects of daily injection of INGAP Peptide to dogs for 34 days on the area of cells in the pancreas that becomes positive for insulin by immunohistochemical staining. Data are mean ±SEM. The percentage of cross-sectional area stained for insulin was determined with an Olympus microscope (150×) and image analysis software (Image Pro Plus Version 4.0, Media Cybernetics).
A repeat-dose toxicology study was conducted in beagle dogs for 34 days with daily IM injection of INGAP Peptide at 0, 0.5, 1.5, and 10 mg/kg/day. Pancreatic tissue was obtained for quantitation of β-cell mass by immunohistochemistry from animals sacrificed on Day 34, at termination of treatment, and from recovery animals sacrificed 25 days after termination of treatment. Pancreatic β-cell mass was increased following INGAP Peptide administration (see FIG. 8).

[6] = tested on: ARIP cells, a rat pancreatic duct cell line; experiment: ARIP cell BrdU proliferation bioassay; type: cell-based; conditions: FIG. 1
Procedure: To confirm that the synthetic molecule is bioactive, a bioassay may be used to confirm the activity. ARIP cells, a rat pancreatic duct cell line, obtained from ATCC (Manassas, Va.) are used in the assay. Cells are plated into a 96-well culture plate at 10,000 cells/well, and cultured for 24 hours in Dulbecco's […] Essential Medium (DMEM) containing 10% fetal bovine serum. After 24 hours, the medium is replaced with DMEM without serum. […] After 21 hours, the medium is supplemented with bromodeoxyuridine (BrdU) labeling solution from a BrdU cell proliferation ELISA kit (Roche Molecular Biochemicals) and cultured for a further 3 hours. At 24 hours the cells are dried at 60° C. for 60 minutes, fixed and denatured. They are exposed to BrdU antibody for 90 minutes and developed for 15 minutes, all according to kit instructions. BrdU labeling is quantitated on a Wallac Victor 1420 Multilabel Counter. Results are compared against a standard curve of cells grown on the same culture plate, seeded at densities from 100 to 20,000 cells per well.

[7] = Stability of bulk INGAP Peptide (lyophilized powder); type: physicochemical
Procedure: Stability is determined by comparing various parameters including, but not limited to, degree of purity, total percentage of impurities, percentage of individual impurities (as determined by HPLC or other suitable quantitative method), appearance, and water content of the sample. An HPLC method can be used to determine any increase in the levels of degradation products relative to the level of INGAP Peptide. INGAP Peptide samples (both solution and lyophilized powder) are stored at various temperatures, in the presence or absence of humidity, and in light or dark vials. Degradation during different storage conditions can lead to an increase in impurities and decrease in INGAP Peptide content. It is desirable that the sample preparation is more than 80% pure, preferably more than 90% pure, more preferably more than 95%, and most preferably more than 97% pure.
Purity of the INGAP Peptide is maintained under these conditions and degradation products are lower than the acceptable levels.

[8] = tested on: patients; experiment: Human clinical studies in type I or type II diabetes mellitus; type: in vivo; conditions: versus placebo
Procedure: Doses are often based on the results of efficacy and safety studies in animals. Two doses of INGAP Peptide, 7.5 mg (0.125 mg/kg, or 4.625 mg/m^2 for a 60 kg patient) and 120 mg ([…], or 74 mg/m^2 for a 60 kg patient) are exemplified in the treatment of type I or type II diabetes mellitus. The following parameters are evaluated to determine efficacy of INGAP Peptide treatment. • 1. A reduction of fasting glucose levels by >35 mg/dl while the total insulin dose is maintained. • 2. A reduction of insulin dose by 25% with fasting glucose levels maintained in the normal range as determined by the American Diabetes Association (ADA) criteria. • 3. An increase in fasting C-peptide >1 ng/ml is obtained. An increase in C-peptide of >2 ng/ml in response to Sustacal® (Boost®) is obtained.
Each patient is randomized to receive one single intramuscular injection of INGAP Peptide. After evaluating efficacy and safety data, patients could be given further INGAP Peptide injections as deemed appropriate by the physician.
Stimulated C-peptide tests are performed in the morning after an overnight fasting period of at least 10 hours. The tests are performed only if the fasting glucose is between 80 and 250 mg/dl. Patients can take their diabetes medications the evening before, but should not take them the morning of the test until the test is completed. Blood samples for the determination of C-peptide are drawn immediately before Boost® ingestion, and at 0.5, 2, and 4 hours post-ingestion. Boost® is administered through ingestion. Patients are considered insulin deficient if their fasting C-peptide is <1.0 ng/ml and their maximum stimulated C-peptide value is <2.0 ng/ml.

Which “number of islets compared with placebo-treated animals” value ([1]; FIG. 2) does the source give for `CC[C@H](C)[C@H](N)C(=O)NCC(=O)N[C@@H](CC(C)C)C(=O)N[C@@H](Cc1c[nH]cn1)C(=O)N[C@@H](CC(=O)O)C(=O)N1CCC[C@H]1C(=O)N[C@@H](CO)C(=O)N[C@@H](Cc1c[nH]cn1)C(=O)NCC(=O)N[C@H](C(=O)N[C@@H](CC(C)C)C(=O)N1CCC[C@H]1C(=O)N[C@@H](CC(N)=O)C(=O)NCC(=O)N[C@@H](CO)C(=O)O)[C@@H](C)O` [INGAP Peptide, NH2-Ile-Gly-Leu-His-Asp-Pro-Ser-His-Gly-Thr-Leu-Pro-Asn-Gly-Ser-COOH] (H-IGLHDPSHGTLPNGS-OH) here?
The value was “significant increase”.

And the “increase in islet number” value ([1]; after 10 consecutive days)?
The value was 30%.

And the “number of islets in the tissues” value ([1]; by 30 days)?
The value was “doubling”.

What about the NOAEL [2] of the same molecule?
The NOAEL was over 100 mg/kg.

What about the insulin-positive tissue area ([3]; 31 days, FIG. 7) of the same molecule?
Its insulin-positive tissue area is “increase in insulin-positive tissue area”.

And the “number of small islets” value ([3]; duct-associated and amongst acinar tissue)?
The value was “increase in the number of small islets”.

And the “extramedullary hematopoiesis in the spleen” value ([3]; mouse, in vivo)?
The value was “seen in one male animal at the high dose”.

What about the injection site irritation ([3]; mouse, in vivo) of the same molecule?
Its injection site irritation is “observed in males and females with increased frequency at the highest dose”.

What about the microscopic pancreas findings ([3]; mouse, in vivo) of the same molecule?
The microscopic pancreas findings was “No microscopic evidence of inflammatory cell infiltration, edema, necrosis or atrophy”.

What about the blood glucose concentrations ([4]; 250 µg twice daily for 39 days, all four treated animals, FIG. 3) of the same molecule?
The blood glucose concentrations was “restored to normal”.

What about the “transdifferentiation of ductal cells (PDX-1 expression)” value ([4]; FIG. 5) of the same molecule?
The value was “induced transdifferentiation of ductal cells”.

What about the “histopathologic evaluation of islets” value ([4]; FIGS. 4 and 6) of the same molecule?
The value was “both the presence of normal-appearing islets and areas of new islet formation”.

And the hypoglycemia ([4]; any of the treated animals)?
Its hypoglycemia is “not observed”.

What about the “durability of the effect after dosing stopped” value ([4]; dosing stopped after 39 days, study terminated at 48 days) of the same molecule?
Its value is 48 days.

And the islet inflammation ([4]; versus saline-treated STZ-diabetic animals, FIG. 6)?
Its islet inflammation is “markedly reduced”.

And the “pancreatic tissue section review” value ([5]; 34-day daily IM dosing)?
Its value is “no changes such as edema, inflammatory cell infiltration, necrosis or atrophy”.

What about the “pancreatic β-cell mass” value ([5]; daily IM 0.5, 1.5, 10 mg/kg/day for 34 days, immunohistochemistry, FIG. 8) of the same molecule?
Its value is “increased”.

What about the “increase in cell count compared with controls” value ([6]; 0.1 µg/ml INGAP Peptide, 24 h, BrdU ELISA) of the same molecule?
Its value is about 1.6 fold.

What about the “cell number, dose dependence” value [6] of the same molecule?
Its value is “dose dependant increase in cell number”.

And the “degradation on further storage” value ([7]; lyophilized powder, storage up to six-months)?
The value was “does not cause any noticeable degradation”.

And the “stability of lyophilized powder” value ([7]; various storage conditions)?
Its value is “stable under various storage conditions”.

And the sugar tolerance ([8]; intramuscular injection)?
The sugar tolerance was “improved sugar tolerance”.

And the “C-peptide level in response to Boost®” value [8]?
The value was “an increase in C-peptide level in response to Boost®”.

What about the “fasting C-peptide level” value [8] of the same molecule?
The value was “an increase in fasting C-peptide level”.

And the fasting glucose level [8]?
Its fasting glucose level is “a reduction in fasting glucose level”.

And the insulin dose required [8]?
The insulin dose required was “a reduction in insulin does required”.
